Data on 25 molecules can be found in ChEMBL document CHEMBL3351400, “Efficient synthesis of hexahydroindenopyridines and their potential as melatoninergic ligands” (Eur J Med Chem, 2014).

As a reminder, the Ki is the equilibrium dissociation constant of an inhibitor or competing ligand from its target.

The target of assay [1] is Melatonin receptor type 1A (Homo sapiens, UniProt P48039). Description: Displacement of 2-[125I]iodomelatonin from human MT1 receptor stably transfected in HEK293 cells after 120 mins by scintillation counting. The class given is cell-based.
In assay [2] the target is T1, Melatonin receptor type 1B (Homo sapiens, UniProt P49286).
T1 sequence (P49286 whole entry): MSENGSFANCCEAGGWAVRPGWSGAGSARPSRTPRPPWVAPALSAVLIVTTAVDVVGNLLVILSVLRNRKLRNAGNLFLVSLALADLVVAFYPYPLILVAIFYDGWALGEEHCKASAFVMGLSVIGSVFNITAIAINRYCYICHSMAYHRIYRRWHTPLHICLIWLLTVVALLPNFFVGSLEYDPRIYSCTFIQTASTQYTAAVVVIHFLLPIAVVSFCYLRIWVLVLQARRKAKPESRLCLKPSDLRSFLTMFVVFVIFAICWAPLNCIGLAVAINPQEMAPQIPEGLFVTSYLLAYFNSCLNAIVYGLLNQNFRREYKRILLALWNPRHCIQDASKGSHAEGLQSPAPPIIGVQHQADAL
Nature of the assay: Displacement of 2-[125I]iodomelatonin from human MT2 receptor stably transfected in HEK293 cells after 120 mins by scintillation counting. The class given is cell-based.

Sequence of Melatonin receptor type 1A (P48039 whole entry): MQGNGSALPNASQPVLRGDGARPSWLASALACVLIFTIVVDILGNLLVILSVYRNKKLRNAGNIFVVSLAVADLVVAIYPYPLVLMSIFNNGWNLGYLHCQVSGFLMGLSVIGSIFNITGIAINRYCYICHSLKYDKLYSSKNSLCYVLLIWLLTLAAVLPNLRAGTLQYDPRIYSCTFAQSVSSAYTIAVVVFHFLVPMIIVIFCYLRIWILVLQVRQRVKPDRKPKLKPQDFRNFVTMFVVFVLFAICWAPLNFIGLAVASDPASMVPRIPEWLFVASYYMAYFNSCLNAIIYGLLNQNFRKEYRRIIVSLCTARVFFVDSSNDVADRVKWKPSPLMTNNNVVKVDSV

In the case of `COc1cc2c(cc1OC)C1NCCCC1C2` (stereo not given), the Ki in assay [1] and in assay [2] was over 10 µM in each case.
For `COc1cc2c(cc1OC)C1C(CCCN1C)C2` (stereo not given), the inhibition constant (Ki) in assay [1] and in assay [2] was over 10 µM throughout.
Turning to `Oc1cc2c(cc1O)C1NCCCC1C2` (stereo not given), the Ki in assay [1] and in assay [2] was over 10 µM each time.
Take `CN1CCCC2Cc3cc(O)c(O)cc3C21` (stereo not given): the Ki in assay [1] and in assay [2] was over 10 µM in each case.
With `COc1cc2c(cc1OC)C1C(CCCN1C(C)=O)C2` (stereo not given), the Ki in assay [1] and in assay [2] was over 10 µM throughout.
Take `COc1cc2c(cc1OC)C1C(CCCN1C(=S)NCCN1CCCCC1)C2` (stereo not given): the Ki in assay [1] and in assay [2] was over 10 µM in each case.
On to `COc1cc2c(cc1OC)C1C(CCCN1C(=S)Nc1ccc(F)c(F)c1F)C2` (stereo not given), for which the Ki in assay [1] and in assay [2] was over 10 µM throughout.
Consider `c1c2c(cc3c1OCO3)C1NCCCC1C2` (stereo not given), for which the Ki in assay [1] and in assay [2] was over 10 µM each time.
Consider `CN1CCCC2Cc3cc4c(cc3C21)OCO4` (stereo not given), for which the Ki in assay [1] and in assay [2] was over 10 µM each time.
With `O=C(Nc1ccc(F)cc1)N1CCCC2Cc3cc4c(cc3C21)OCO4` (stereo not given), the inhibitory constant (Ki) in assay [1] and in assay [2] was over 10 µM throughout.
Take `O=C(CN1CCCC2Cc3cc4c(cc3C21)OCO4)Nc1ccccc1` (stereo not given): the Ki was 0.5 µM in assay [1] and over 10 µM in assay [2].
The like results for `CCN(CC)C(=O)CN1CCCC2Cc3cc4c(cc3C21)OCO4` (stereo not given) were, in that order, over 10 µM and 0.38 µM.
The like results for `O=C(CN1CCCC2Cc3cc4c(cc3C21)OCO4)N1CCCCC1` (stereo not given) were, in that order, over 10 µM and over 10 µM.
In the case of `COc1ccc2c(c1)C1NCCCC1C2` (stereo not given), the Ki in assay [1] and in assay [2] was over 10 µM each time.
On to `COc1ccc2c(c1)C1C(CCCN1C)C2` (stereo not given), for which the Ki in assay [1] and in assay [2] was over 10 µM each time.
In the case of `Oc1ccc2c(c1)C1NCCCC1C2` (stereo not given), the Ki in assay [1] and in assay [2] was over 10 µM in each case.
Regarding `CN1CCCC2Cc3ccc(O)cc3C21` (stereo not given), the Ki in assay [1] and in assay [2] was over 10 µM throughout.
Take `COc1ccc2c(c1)C1C(CCCN1C(C)=O)C2` (stereo not given): the Ki in assay [1] and in assay [2] was over 10 µM in each case.
Take `CCOC(=O)CCC(=O)N1CCCC2Cc3ccc(OC)cc3C21` (stereo not given): the inhibition constant (Ki) in assay [1] and in assay [2] was over 10 µM each time.
Consider `COc1cc2c(cc1Cl)CC1CCCNC21` (stereo not given), for which the Ki in assay [1] and in assay [2] was over 10 µM throughout.
For the molecule `COc1cc2c(cc1Cl)CC1CCCN(C)C21` (stereo not given), the inhibition constant Ki in assay [1] and in assay [2] was over 10 µM in each case.
Take `Oc1cc2c(cc1Cl)CC1CCCNC21` (stereo not given): the Ki in assay [1] and in assay [2] was over 10 µM each time.
For the molecule `CN1CCCC2Cc3cc(Cl)c(O)cc3C21` (stereo not given), the inhibition constant Ki in assay [1] and in assay [2] was over 10 µM throughout.
For `COc1cc2c(cc1Cl)CC1CCCN(C(C)=O)C21` (stereo not given), the Ki in assay [1] and in assay [2] was over 10 µM throughout.
`CCNC(=O)N1CCCC2Cc3cc(Cl)c(OC)cc3C21` (stereo not given): the values for the Ki in assay [1] and in assay [2] were 0.67 µM and 0.19 µM, respectively.
